Source: patent US20100331348A1, “TROPANE DERIVATIVES USEFUL AS PESTICIDES” (SYNGENTA CROP PROTECTION, INC., priority 2007, published 2010)
Where two headings read alike, the source gives them in different places.

How the values were obtained:
Heliothis virescens = Heliothis virescens (Tobacco budworm) egg test on artificial diet; details: 96 h, read-out: control of Heliothis virescens
Spodoptera littoralis = Spodoptera littoralis (Egyptian cotton leafworm) cotton leaf disc test; details: in Gossypium hirsutum, foliar, 72 h, read-out: control of Spodoptera littoralis
Plutella xylostella = Plutella xylostella (Diamond back moth) artificial diet test; details: 120 h, read-out: control of Plutella xylostella
Tetranychus urticae = details: foliar, 192 h, read-out: control of Tetranychus urticae
[1] = system: Puccinia recondita f.sp. tritici; experiment: Puccinia recondita f.sp. tritici (wheat brown rust) leaf disk assay; assay type: in vivo; details: foliar, 216 h, preventive, nine days after inoculation, read-out: control of fungal infection, Puccinia recondita f.sp. tritici
Aedes aegypti = Aedes aegypti (Yellow fever mosquito) larvae test; assay type: in vivo; details: 48 h
Pyricularia oryzae = experiment: whole plant or invertebrate; assay type: in vivo; details: foliar, 96 h
Myzus persicae = Myzus persicae (Green peach aphid) sunflower leaf disc test; details: foliar, 144 h, read-out: control of Myzus persicae
Septoria tritici = Septoria tritici (leaf blotch) growth inhibition in nutrient broth; assay type: cell-based; details: Zymoseptoria tritici, 72 hrs, read-out: control of fungal infection, Septoria tritici
Plasmopara viticola = Plasmopara viticola (downy mildew of grapevine) leaf disk assay; assay type: in vivo; details: foliar, 168 h, preventive, seven days after inoculation, read-out: control of fungal infection, Plasmopara viticola
Phytophthora infestans = experiment: whole plant or invertebrate; assay type: in vivo; details: foliar, 96 h, read-out: control of fungal infection, Phytophthora infestans
[2] = system: Erysiphe graminis f.sp. tritici; experiment: Erysiphe graminis f.sp. tritici (wheat powdery mildew) leaf disk assay; assay type: in vivo; details: Blumeria graminis, foliar, 96 h, preventive, four days after inoculation, read-out: control of fungal infection, Erysiphe graminis fsp. tritici
Pythium ultimum = Pythium ultimum (Damping off) growth inhibition in potato dextrose broth; assay type: cell-based; details: Globisporangium ultimum, 48 hours, read-out: control of fungal infection, Pythium ultimum
[3] = read-out: control of fungal infection, Pyricularia oryzae (at least 60% list)
[4] = read-out: control of fungal infection, Pyricularia oryzae (at least 80% list)

Row | SMILES | pest or weed control at 200 ppm (Heliothis virescens) [%] | pest or weed control at 200 ppm (Spodoptera littoralis) [%] | pest or weed control at 200 ppm (Plutella xylostella) [%] | pest or weed control at 200 ppm (Tetranychus urticae) [%] | pest or weed control at 200 ppm [1] [%] | pest or weed control at 2 ppm (Aedes aegypti) [%] | pest or weed control at 200 ppm (Pyricularia oryzae; [3]) [%] | pest or weed control at 200 ppm (Pyricularia oryzae; [4]) [%] | pest or weed control at 200 ppm (Myzus persicae) [%] | inhibition of growth at 200 ppm (Septoria tritici) [%] | pest or weed control at 200 ppm (Plasmopara viticola) [%] | pest or weed control at 200 ppm (Phytophthora infestans) [%] | pest or weed control at 200 ppm [2] [%] | inhibition of growth at 200 ppm (Pythium ultimum) [%]
1 | CCc1ncnc(N2C3CCC2CC(=Cc2ccc(C)cc2)C3)c1Cl [Example 3.7] | ≥ 80 | ≥ 80 | ≥ 80 | ≥ 80 | ≥ 80 | ≥ 80 |  |  |  |  |  |  |  | 
2 | CCc1ncnc(N2C3CCC2CC(=Cc2ccc(OC)cc2)C3)c1Cl [Example 3.9] | ≥ 80 | ≥ 80 | ≥ 80 | ≥ 80 |  | ≥ 80 | ≥ 60 | ≥ 80 |  |  |  |  |  | 
3 | CCc1ncnc(N2C3CCC2CC(=CCOc2ccc(C)nc2)C3)c1Cl [Example 3.14] | ≥ 80 | ≥ 80 |  | ≥ 80 | ≥ 80 | ≥ 80 |  | ≥ 80 | ≥ 80 | ≥ 60 |  |  |  | 
4 | Clc1ccc(C=C2CC3CCC(C2)N3c2ncnc3sccc23)cc1 [Example 3.20] | ≥ 80 | ≥ 80 | ≥ 80 | ≥ 80 | ≥ 80 | ≥ 80 | ≥ 60 | ≥ 80 |  |  | ≥ 80 |  |  | 
5 | C(=C1CC2CCC(C1)N2c1ncnc2sccc12)c1ccccc1 [Example 3.27] | ≥ 80 | ≥ 80 | ≥ 80 | ≥ 80 | ≥ 80 | ≥ 80 | ≥ 60 | ≥ 80 |  |  | ≥ 80 | ≥ 80 |  | 
6 | Cc1ccc(C=C2CC3CCC(C2)N3c2ncnc3sccc23)cc1 [Example 3.32] | ≥ 80 | ≥ 80 | ≥ 80 | ≥ 80 | ≥ 80 | ≥ 80 | ≥ 60 | ≥ 80 | ≥ 80 |  | ≥ 80 |  |  | 
7 | CCc1ncnc(N2C3CCC2CC(=NOCc2ccc(F)cc2)C3)c1Cl [Example 5.30] | ≥ 80 | ≥ 80 | ≥ 80 |  | ≥ 80 | ≥ 80 | ≥ 60 |  | ≥ 80 |  |  |  | ≥ 80 | 
8 | Fc1ccccc1CON=C1CC2CCC(C1)N2c1ncnc2sccc12 [Example 5.211] | ≥ 80 | ≥ 80 | ≥ 80 |  | ≥ 80 | ≥ 80 |  |  |  |  |  | ≥ 80 | ≥ 80 | 
9 | Fc1cccc(F)c1CON=C1CC2CCC(C1)N2c1ncnc2sccc12 [Example 5.215] |  | ≥ 80 | ≥ 80 | ≥ 80 | ≥ 80 | ≥ 80 | ≥ 60 | ≥ 80 | ≥ 80 |  | ≥ 80 |  | ≥ 80 | 
10 | Fc1cc(Br)ccc1CON=C1CC2CCC(C1)N2c1ncnc2sccc12 [Example 5.232] |  | ≥ 80 | ≥ 80 |  | ≥ 80 | ≥ 80 | ≥ 60 |  | ≥ 80 |  |  | ≥ 80 | ≥ 80 | ≥ 60
